Assay results: the SangsterLogP compilation

logP	Compound
0.99	CC(C)OC(=O)[C@@H](N)Cc1ccc(O)cc1
0.18	COC(=O)[C@@H](N)Cc1ccc(O)cc1
1.62	N[C@@H](Cc1ccc(O)cc1)C(=O)Oc1ccc([N+](=O)[O-])cc1
0.6	CCOC(=O)[C@@H](N)Cc1ccc(O)cc1
1.59	CCC(C)OC(=O)[C@@H](N)Cc1ccc(O)cc1 (stereo partly drawn)

More lines, now with the values behind:

Compound	logP
CC(C)(C)OC(=O)[C@@H](N)Cc1ccc(O)c(O)c1	0.81
N[C@@H](Cc1ccc(O)c(O)c1)C(=O)OC1CCOC1 (stereo partly drawn)	-0.45
CCC(C)OC(=O)[C@@H](N)Cc1ccc(O)c(O)c1 (stereo partly drawn)	0.93
N[C@@H](Cc1ccc(O)c(O)c1)C(=O)OCC1CCCO1 (stereo partly drawn)	0.01
COC(=O)[C@@H](N)Cc1ccc(O)c(O)c1	-0.28
CC(C)(C)OC(=O)N[C@@H](Cc1ccc(O)c(O)c1)C(=O)O	-1.86
CC(C)OC(=O)[C@@H](N)Cc1ccc(O)c(O)c1	0.52
N[C@@H](Cc1ccccc1)C(=O)OCc1ccccc1	2.48
